Laboratory results: PubChem BioAssay (NCI)
Where “and” joins values, the source holds several entries; their conditions need not be identical. Identical values can stand only once.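 In this assay, cells in 96-well plates receive the compound at five concentrations for 48 hours. Endpoints are linearly interpolated between the surrounding concentrations. Abbreviation: GI50, concentration required for 50% inhibition of growth. At the TGI there is no net growth.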

How the values were obtained:
Test in all cases: NCI anticancer screen, dose series, 48 h
A498 renal = tested on: A498 renal
DU-145 prostate = tested on: DU-145 prostate
HOP-62 NSCLC = tested on: HOP-62 NSCLC
LOX IMVI melanoma = tested on: LOX IMVI melanoma
MOLT-4 leukemia = tested on: MOLT-4 leukemia
RXF 393 renal = tested on: RXF 393 renal
SK-MEL-28 melanoma = tested on: SK-MEL-28 melanoma
SK-OV-3 ovarian = tested on: SK-OV-3 ovarian
SNB-75 CNS = tested on: SNB-75 CNS
UO-31 renal = tested on: UO-31 renal

| SMILES | GI50 (A498 renal) | TGI (A498 renal) | GI50 (DU-145 prostate) | TGI (DU-145 prostate) | GI50 (HOP-62 NSCLC) | TGI (HOP-62 NSCLC) | GI50 (LOX IMVI melanoma) | TGI (LOX IMVI melanoma) | GI50 (MOLT-4 leukemia) | TGI (MOLT-4 leukemia) | GI50 (RXF 393 renal) | TGI (RXF 393 renal) | GI50 (SK-MEL-28 melanoma) | TGI (SK-MEL-28 melanoma) | GI50 (SK-OV-3 ovarian) | TGI (SK-OV-3 ovarian) | GI50 (SNB-75 CNS) | TGI (SNB-75 CNS) | GI50 (UO-31 renal) | TGI (UO-31 renal) |
| --- | --- | --- | --- | --- | --- | --- | --- | --- | --- | --- | --- | --- | --- | --- | --- | --- | --- | --- | --- | --- |
| C/C1=C/C(=O)O[C@@H]2C[C@@H](CC[C@H](C)/C=C\C=C\CC1)O[C@@](O)([C@@H]1CSC(=O)N1CO)C2 | 0.0183 µM | 0.0724 µM | 0.239 µM | > 57.3 µM | 0.0254 µM | 0.176 µM | 0.0228 µM | 11.1 µM | 3.42 µM | > 51.8 µM | 0.0367 µM | 0.276 µM | 0.164 µM | 0.603 µM | 0.0504 µM | 0.404 µM | 0.0151 µM | 0.0523 µM | 0.0241 µM | 0.132 µM |
| Cc1ccc2c(c1)C(C)Cc1c(ncnc1-n1cnc3cc(C)ccc31)N2C (stereo unspecified) | 0.0297 µM | 2 µM | 0.0379 µM | 11.1 µM | 0.0352 µM | 15.6 µM | 0.0361 µM | 12.2 µM | 0.0407 µM | 13.8 µM | 0.0289 µM | 8.74 µM | 0.0743 µM | 15.8 µM | 0.0295 µM | 1.09 µM | 0.0262 µM | 13.4 µM | 0.0729 µM | 12.3 µM |
| COC(=O)[C@H]1C(=O)[C@@]2(C)[C@H]([C@H](OC(=O)c3ccccc3)[C@]3(O)C[C@H](OC(=O)[C@H](O)[C@@H](NC(=O)c4ccc(F)cc4)c4ccccc4)C(C)=C1C3(C)C)[C@]1(OC(C)=O)CO[C@@H]1C[C@@H]2O | 0.0315 µM | – | 0.00708 µM | 0.023 µM | 0.0112 µM | > 6.58 µM | 0.00974 µM | > 25 µM | 0.0101 µM | 3.42 µM | 0.0152 µM | > 25 µM | 0.0154 µM | 22 µM | 0.0115 µM | > 25 µM | 0.00273 µM | 0.0443 µM | 1.89 µM | > 25 µM |
| COc1cc2c3c(c4ccc(OC)c(OC)c4c2cc1OC)CN1CCC[C@@H]1C3 | – | 0.0681 µM | – | 2.9 µM | – | 39.8 µM | – | 0.384 µM | – | 0.252 µM | – | 0.29 µM | – | 7.43 µM | – | 2.84 µM | – | 0.0947 µM | – | 0.291 µM |
| COc1cc(-c2nc(NC(C)=O)sc2-c2ccnc(NCCNS(=O)(=O)c3ccccc3)n2)ccc1Cl | 2.96 µM | 8.97 µM | 5.11 µM | > 100 µM | 6.78 µM | > 100 µM | 4.41 µM | > 100 µM | 3.17 µM | > 100 µM | 2.74 µM | 7.53 µM | 3.71 µM | > 100 µM | 4.77 µM | > 100 µM | 1.49 µM | 7.19 µM | 4.46 µM | > 100 µM |
| CN1CCC(CNc2ccc3ncc(-c4cccc(OC(F)(F)F)c4)n3n2)CC1 | 0.869 µM and 1.58 µM | 3.28 µM and 7.47 µM | 3.35 µM and 3.6 µM | 13.4 µM and > 10 µM | 1.84 µM and 3.44 µM | 4.25 µM and > 10 µM | 1.56 µM and 1.47 µM | 3.2 µM and 2.85 µM | 2.12 µM and 1.45 µM | 9.15 µM and 5.73 µM | 1.44 µM and 1.72 µM | 3.68 µM and 6.48 µM | 1.55 µM and 1.61 µM | 2.99 µM and 3.14 µM | 1.89 µM and 3.94 µM | 4.98 µM and > 10 µM | 1.39 µM and 1.09 µM | 4.46 µM and 8.12 µM | 1.16 µM and 1.24 µM | 2.59 µM and 3.04 µM |
| COc1cccc(Cn2c(-c3nonc3N)nc3ccccc32)c1 | 0.0532 µM | 0.696 µM | 0.591 µM | > 100 µM | 0.511 µM | 48.3 µM | 0.547 µM | > 100 µM | 0.632 µM | > 100 µM | 0.244 µM | 0.675 µM | 0.781 µM | > 91.8 µM | 0.414 µM | 25.9 µM | 0.225 µM | 2.02 µM | 0.632 µM | > 100 µM |
| C=CC(=O)N1C/C(=C\c2ccccc2)C(=O)/C(=C/c2ccccc2)C1 | – | 4.03 µM | – | 15.9 µM | – | 6.28 µM | 0.357 µM | 0.638 µM | 0.562 µM | 4.5 µM | – | 4.43 µM | – | 3.78 µM | – | 7.58 µM | – | 10 µM | – | 3.43 µM |
| O=C(CSc1nc2ccccc2nc1-c1ccccc1)Nc1ccc(Cl)cc1 | 31.4 µM | > 100 µM | 55.4 µM | > 100 µM | 5.28 µM | 20.4 µM | 38.3 µM | > 100 µM | > 100 µM | > 100 µM | 19.1 µM | 62.7 µM | 60.8 µM | > 100 µM | 78.9 µM | > 100 µM | 18.7 µM | 59.4 µM | 55.4 µM | > 100 µM |
| Sc1ccc2ccccc2c1CNCc1ccccc1 | – | 95.5 µM | – | 69.3 µM | – | 34.9 µM | – | 18.6 µM | – | 6.59 µM | – | 26 µM | – | 69.7 µM | – | 41.1 µM | – | 44.2 µM | – | 26.9 µM |
| O=C1/C(=C\c2ccc(F)cc2)CN(C(=O)c2ccc([N+](=O)[O-])cc2)C/C1=C\c1ccc(F)cc1 | 4.4 µM | 47 µM | 4.31 µM | > 51.8 µM | 2.56 µM | 7.85 µM | 0.373 µM | 1.47 µM | 2.7 µM | > 85.2 µM | 1.53 µM | 3.19 µM | 3.72 µM | 15.1 µM | 3.7 µM | 26.8 µM | 7.66 µM | > 93 µM | 1.69 µM | 6.99 µM |
| Cc1ccc(S(=O)(=O)Oc2ccc([N+](=O)[O-])cc2[N+](=O)[O-])cc1 | 11.8 µM | 24.9 µM | 11.4 µM | 23.5 µM | 13.6 µM | 30.5 µM | 3.23 µM | 15 µM | 3.82 µM | 55.1 µM | 7.89 µM | 20.7 µM | 13 µM | 26.4 µM | 9.4 µM | 91.3 µM | 6.77 µM | 21.3 µM | 2.48 µM | 9.26 µM |
| NCCCCCCCCn1c2c(c3ccccc3c1=O)C(=O)c1ccccc1-2 | 3.48 µM | 15.8 µM | 3.4 µM | 14 µM | 2.13 µM | 4.69 µM | 3.64 µM | > 100 µM | 1.82 µM | 3.53 µM | 4.58 µM | > 100 µM | 2.87 µM | 8.47 µM | 16.6 µM | 39.4 µM | 7.65 µM | 26.8 µM | 3.36 µM | 12.3 µM |
| COc1ccccc1-c1cc(/C=C2\C(=O)Nc3ncc(Br)cc32)cc(Br)c1O | 3.73 µM | 19.5 µM | 17.6 µM | > 25 µM | 22.7 µM | > 25 µM | 10.5 µM | > 25 µM | 9.31 µM | > 25 µM | 6.77 µM | > 25 µM | 14.8 µM | > 25 µM | > 21.3 µM | > 25 µM | 6.03 µM | > 25 µM | 4.49 µM | > 25 µM |
| C=C(C)[C@@H]1CC[C@]2(C(N)=O)CC[C@]3(C)[C@H](CC[C@@H]4[C@@]5(C)CC[C@H](O)C(C)(C)[C@@H]5CC[C@]43C)[C@@H]12 | 12.2 µM | 76.5 µM | 3.21 µM | 10.1 µM | 3.21 µM | 12.8 µM | 1.77 µM | 3.23 µM | 3.43 µM | 18.3 µM | 2.1 µM | 5.39 µM | 10.9 µM | 42.3 µM | 8.18 µM | 29.8 µM | 2.74 µM | 12.1 µM | 1.72 µM | 3.34 µM |
| Nc1ccccc1SC(CC(=O)c1ccccc1)c1ccc([N+](=O)[O-])cc1 (stereo unspecified) | 14.3 µM | 27.7 µM | 13.9 µM | 27.2 µM | 14.5 µM | 28 µM | 1.91 µM | 4.15 µM | 13.5 µM | 60.1 µM | 15.8 µM | 29.6 µM | 14.4 µM | 27.6 µM | 17.3 µM | 31 µM | 11.2 µM | 23.3 µM | 7.75 µM | 21.5 µM |
| CCNCCC1(CC)C(=O)NC(=O)NC1=O | – | > 100 µM | – | > 100 µM | – | > 100 µM | – | > 100 µM | – | > 100 µM | – | > 100 µM | – | > 100 µM | – | > 100 µM | – | > 100 µM | – | > 100 µM |
